Laboratory results published in ChEMBL document CHEMBL3885881, “DrugMatrix”.

Organism: Rattus norvegicus
Experiment: DrugMatrix - Regimen: Daily Repeat
Assay type: toxicity, organism-based, Sprague-Dawley
Design: regimen Daily Repeat, gender Male, age 6-8 weeks
Conditions: in vivo, po, route oral GAVAGE, vehicle 100 % WATER; for ABSOLUTE BASOPHIL / ABSOLUTE EOSINOPHIL / ABSOLUTE LYMPHOCYTE / ABSOLUTE MONOCYTE / ABSOLUTE SEGMENTED NEUTROPHIL / BASOPHIL / EOSINOPHIL / ERYTHROCYTE COUNT / HEMATOCRIT / HEMOGLOBIN / LEUKOCYTE COUNT / LYMPHOCYTE / MEAN CORPUSCULAR HEMOGLOBIN / MEAN CORPUSCULAR HEMOGLOBIN CONCENTRATION / MEAN CORPUSCULAR VOLUME / MONOCYTE / NEUTROPHIL / NUCLEATED RED BLOOD CELLS / PLATELET COUNT: tissue Blood; for ALANINE AMINOTRANSFERASE / ALKALINE PHOSPHATASE / ASPARTATE AMINOTRANSFERASE / BLOOD UREA NITROGEN / CARBON DIOXIDE / CHLORIDE / CHOLESTEROL / CREATINE PHOSPHOKINASE / CREATININE / GLUCOSE / LACTATE DEHYDROGENASE / LIPASE / PHOSPHORUS / POTASSIUM / SODIUM / TOTAL BILIRUBIN / TOTAL PROTEIN / URIC ACID: tissue Plasma
[1] = 0 mg/kg, 72 h, dose level Control, time 3 day
[2] = 0 mg/kg, 120 h, dose level Control, time 5 day
[3] = 22 mg/kg, 72 h, dose level Low, time 3 day

COc1ccc(C(CN(C)C)C2(O)CCCCC2)cc1 (stereo unspecified) [VENLAFAXINE]
ABSOLUTE BASOPHIL [1]: 0 CELLS/uL | ABSOLUTE EOSINOPHIL [1]: 102 CELLS/uL | ABSOLUTE LYMPHOCYTE [1]: 12758 CELLS/uL | ABSOLUTE MONOCYTE [1]: 197.17 CELLS/uL | ABSOLUTE SEGMENTED NEUTROPHIL [1]: 1259.5 CELLS/uL | BASOPHIL [1]: 0% | EOSINOPHIL [1]: 0.83% | ERYTHROCYTE COUNT [1]: 5.3 x10E6/uL | HEMATOCRIT [1]: 33.47% | HEMOGLOBIN [1]: 13.12 G/DL | LEUKOCYTE COUNT [1]: 14.32 x10E3/uL | LYMPHOCYTE [1]: 89.33% | MEAN CORPUSCULAR HEMOGLOBIN [1]: 24.8 pg | MEAN CORPUSCULAR HEMOGLOBIN CONCENTRATION [1]: 39.18 G/DL | MEAN CORPUSCULAR VOLUME [1]: 63.25 fL | MONOCYTE [1]: 1.33% | NEUTROPHIL [1]: 8.5% | NUCLEATED RED BLOOD CELLS [1]: 0 /100WBC | PLATELET COUNT [1]: 1313.17 x10E3/uL | ALANINE AMINOTRANSFERASE [1]: 52.67 u/L | ALKALINE PHOSPHATASE [1]: 372 u/L | ASPARTATE AMINOTRANSFERASE [1]: 82.83 u/L | BLOOD UREA NITROGEN [1]: 15 mg/dL | CARBON DIOXIDE [1]: 25.67 mmol/L | CHLORIDE [1]: 102.17 MEQ/L | CHOLESTEROL [1]: 68.83 mg/dL | CREATINE PHOSPHOKINASE [1]: 285 u/L | CREATININE [1]: 0.18 mg/dL | GLUCOSE [1]: 149.17 mg/dL | LACTATE DEHYDROGENASE [1]: 263.83 u/L | LIPASE [1]: 10.17 u/L | PHOSPHORUS [1]: 12.58 mg/dL | POTASSIUM [1]: 6.58 MEQ/L | SODIUM [1]: 144.22 MEQ/L | TOTAL BILIRUBIN [1]: 0.22 mg/dL | TOTAL PROTEIN [1]: 5.83 G/DL | URIC ACID [1]: 1.58 mg/dL | ABSOLUTE BASOPHIL [2]: 0 CELLS/uL | ABSOLUTE EOSINOPHIL [2]: 24 CELLS/uL | ABSOLUTE LYMPHOCYTE [2]: 11134.17 CELLS/uL | ABSOLUTE MONOCYTE [2]: 56.33 CELLS/uL | ABSOLUTE SEGMENTED NEUTROPHIL [2]: 1235.5 CELLS/uL | BASOPHIL [2]: 0% | EOSINOPHIL [2]: 0.17% | ERYTHROCYTE COUNT [2]: 5.68 x10E6/uL | HEMATOCRIT [2]: 35.72% | HEMOGLOBIN [2]: 13.93 G/DL | LEUKOCYTE COUNT [2]: 12.45 x10E3/uL | LYMPHOCYTE [2]: 89.5% | MEAN CORPUSCULAR HEMOGLOBIN [2]: 24.63 pg | MEAN CORPUSCULAR HEMOGLOBIN CONCENTRATION [2]: 39.13 G/DL | MEAN CORPUSCULAR VOLUME [2]: 62.97 fL | MONOCYTE [2]: 0.5% | NEUTROPHIL [2]: 9.83% | NUCLEATED RED BLOOD CELLS [2]: 0 /100WBC | PLATELET COUNT [2]: 1204 x10E3/uL | ALANINE AMINOTRANSFERASE [2]: 59.5 u/L | ALKALINE PHOSPHATASE [2]: 415.67 u/L | ASPARTATE AMINOTRANSFERASE [2]: 91.33 u/L | BLOOD UREA NITROGEN [2]: 17 mg/dL | CARBON DIOXIDE [2]: 26.33 mmol/L | CHLORIDE [2]: 104.17 MEQ/L | CHOLESTEROL [2]: 77 mg/dL | CREATINE PHOSPHOKINASE [2]: 249.67 u/L | CREATININE [2]: 0.21 mg/dL | GLUCOSE [2]: 148.33 mg/dL | LACTATE DEHYDROGENASE [2]: 168.5 u/L | LIPASE [2]: 10.17 u/L | PHOSPHORUS [2]: 12.92 mg/dL | POTASSIUM [2]: 7.09 MEQ/L | SODIUM [2]: 148.37 MEQ/L | TOTAL BILIRUBIN [2]: 0.23 mg/dL | TOTAL PROTEIN [2]: 6.3 G/DL | URIC ACID [2]: 1.77 mg/dL | ABSOLUTE BASOPHIL [3]: 0 CELLS/uL | ABSOLUTE EOSINOPHIL [3]: 59.67 CELLS/uL | ABSOLUTE LYMPHOCYTE [3]: 13145.33 CELLS/uL | ABSOLUTE MONOCYTE [3]: 145.33 CELLS/uL | ABSOLUTE SEGMENTED NEUTROPHIL [3]: 1183 CELLS/uL | BASOPHIL [3]: 0% | EOSINOPHIL [3]: 0.33% | ERYTHROCYTE COUNT [3]: 5.58 x10E6/uL | HEMATOCRIT [3]: 35.93% | HEMOGLOBIN [3]: 14.03 G/DL | LEUKOCYTE COUNT [3]: 14.53 x10E3/uL | LYMPHOCYTE [3]: 90.67% | MEAN CORPUSCULAR HEMOGLOBIN [3]: 25.13 pg | MEAN CORPUSCULAR HEMOGLOBIN CONCENTRATION [3]: 39.1 G/DL | MEAN CORPUSCULAR VOLUME [3]: 64.33 fL | MONOCYTE [3]: 1% | NEUTROPHIL [3]: 8% | NUCLEATED RED BLOOD CELLS [3]: 0 /100WBC | PLATELET COUNT [3]: 1219 x10E3/uL | ALANINE AMINOTRANSFERASE [3]: 59.67 u/L | ALKALINE PHOSPHATASE [3]: 338 u/L | ASPARTATE AMINOTRANSFERASE [3]: 94.33 u/L | BLOOD UREA NITROGEN [3]: 15.67 mg/dL | CARBON DIOXIDE [3]: 24.33 mmol/L | CHLORIDE [3]: 103.67 MEQ/L | CHOLESTEROL [3]: 73.67 mg/dL | CREATINE PHOSPHOKINASE [3]: 320.67 u/L | CREATININE [3]: 0.17 mg/dL | GLUCOSE [3]: 162 mg/dL | LACTATE DEHYDROGENASE [3]: 412.33 u/L | LIPASE [3]: 11.33 u/L | PHOSPHORUS [3]: 13.2 mg/dL | POTASSIUM [3]: 6.69 MEQ/L | SODIUM [3]: 146.03 MEQ/L | TOTAL BILIRUBIN [3]: 0.13 mg/dL | TOTAL PROTEIN [3]: 6.2 G/DL | URIC ACID [3]: 2.33 mg/dL
